Reference: patent US8252294B2, “Methods of screening for compounds that inhibit the biosynthesis of GPI in malaria parasites” (Eisai R&D Management Co., Ltd., priority 2002, dated 2012)

Tests used:
[1] = system: P. falciparum FCR3 strain; assay: Antimalarial activity in red blood cell culture system (infection rate by Giemsa staining); type: cell-based; settings: human red blood cells infected with P. falciparum FCR3, 48 hours, Giemsa staining (FIG. 3)
Method: Specifically, a test compound was dissolved in 100% DMSO, diluted with a medium, and an 80 μl aliquot of the dilution was added to each well of a 96-well culture plate. P. falciparum FCR3 strain was pre-cultured in RPMI1640 medium containing 10% human serum at 37° C., and then 20 μl of the cultured cells (containing 10% red blood cells) was added to each well. At this time, 0.47% of red blood cells were infected. After culturing under 5% O2, 5% CO2, and 90% N2 at 37° C. for 48 hours, the malaria parasites were stained using Giemsa staining. The number of protozoan-infected red blood cells was determined in order to estimate infection rate (FIG. 3).

ScGWT1-expressing yeast = assay: Growth inhibition of GWT1-disrupted yeast expressing S. cerevisiae GWT1 (pGAP-ScGWT1), culture turbidity; type: cell-based; settings: for culture turbidity at 660 nm: pGAP-ScGWT1 yeast, 30° C., two days
Method: (§1) An expression cassette was constructed by inserting the S. cerevisiae GWT1 terminator, and the S. cerevisiae GAPDH promoter and multi-cloning site into the SacI-KpnI site of the single-copy vector pRS316. S. cerevisiae GWT1 and opfGWT1 were inserted into the multi-cloning site to prepare pGAP-ScGWT1 and pGAP-opfGWT1 plasmids, respectively. These plasmids were introduced into the GWT1 disruptant. Serial two-fold dilutions of compound (1) were prepared using YPAD to make the highest final concentration 50 μg/ml. A 50 μl aliquot of the diluted compound was added to each well of a 96-well plate. Overnight cultures of yeast cells comprising each plasmid were diluted 1000-fold and then a 50 μl aliquot of the dilution was added to each well. The plates were incubated at 30° C. for two days, and then culture turbidity was determined at 660 nm (FIG. 2 and Table 1).

opfGWT1-expressing yeast = assay: Growth inhibition of GWT1-disrupted yeast expressing opfGWT1 (pGAP-opfGWT1), culture turbidity; type: cell-based, S. cerevisiae; settings: for culture turbidity at 660 nm: pGAP-opfGWT1 yeast, 30° C., two days
Method: as §1

SMILES	antimalarial activity (infection rate of red blood cells) [1]	inhibition at 25 µg/mL (ScGWT1-expressing yeast; Saccharomyces cerevisiae, ScGWT1-expressing yeast, compound at 25 μg/ml) [%]	viability of yeast (ScGWT1-expressing yeast; ScGWT1-expressing yeast, compound at 50 μg/ml)	culture turbidity at 660 nm (ScGWT1-expressing yeast; compound 6.25 μg/ml)	culture turbidity at 660 nm (ScGWT1-expressing yeast; compound 12.5 μg/ml)	culture turbidity at 660 nm (ScGWT1-expressing yeast; compound 25 μg/ml)	culture turbidity at 660 nm (ScGWT1-expressing yeast; compound 50 μg/ml)	inhibition at 25 µg/mL (opfGWT1-expressing yeast; Saccharomyces cerevisiae, opfGWT1-expressing yeast, compound at 25 μg/ml) [%]	viability of yeast (opfGWT1-expressing yeast; opfGWT1-expressing yeast, compound at 50 μg/ml)	culture turbidity at 660 nm (opfGWT1-expressing yeast; compound 6.25 μg/ml)	culture turbidity at 660 nm (opfGWT1-expressing yeast; compound 12.5 μg/ml)	culture turbidity at 660 nm (opfGWT1-expressing yeast; compound 25 μg/ml)	culture turbidity at 660 nm (opfGWT1-expressing yeast; compound 50 μg/ml)
CCCCc1ccc(Cc2nccc3ccccc23)c(O)c1 [compound (3), 5-butyl-2-(1-isoquinolylmethyl) phenol]	strong antimalarial activity												
COc1cccnc1Cc1ccc(Br)cc1F [compound (4), 2-(4-bromo-2-fluorobenzyl)-3-methoxypyridine]	lowest activity												
CCCCc1ccc(Cc2nccc3ccccc23)cc1 [compound (1), 1-(4-butylbenzyl) isoquinoline]		~85	completely nonviable	0.7370	0.6670	0.1140	0.0420	~50	completely nonviable	0.6990	0.6910	0.3630	0.0530
